{
  "source": "patent US20060257481A1",
  "about": "“Sustained release formulation and dosing schedule of leukotriene synthesis inhibitor for human therapy” (deCODE Genetics ehf., priority 2005, published 2006)",
  "key": {"[1]": {"test_system": "LTB4 produced by ionomycin-activated neutrophils ex vivo", "assay": "Study DG-031-201: LTB4 in whole blood ex vivo after ionomycin activation (ELISA)", "set-up": "species or system human", "protocol": "(§1) Patients who met the study eligebility criteria were enrolled and randomized into 3 different dose-level groups: (1) 64 patients on 250 mg/day therapy with DG-031 (250 mg q.d.), vs placebo; (2) 64 patients on 500 mg/day therapy with DG-031 (250 mg b.i.d.) vs placebo; and (3) 63 patients on 750 mg/day therapy with DG-031 (250 mg t.i.d.) vs placebo. […] All patients received 3 tablets per day. Treatment periods, 4 weeks in duration each, were separated by a 2-week washout period. The placebo tablets were identical in shape, color, form and taste to the active tablets except that they contained no active drug ingredients. Treatment with DG-031 or placebo was in addition to the subject's standard care, including all medications and treatment plan as prescribed by the subject's cardiologist prior to enrolment. A total of 191 subjects were enrolled, with 172 completing all 8 visits or 8 patients short of the target of 180 patients.\n(§2) The primary objective was to determine whether the FLAP inhibitor has a statistically significant effect, compared to placebo, on one or more biomarkers of MI risk, including: (1) ionomycin-induced LTB4 and MPO release by neutrophils ex vivo; (2) MPO, CRP, N-tyrosine, Lp-PLA2 or amyloid A in serum, or (3) LTE4 in urine. The secondary objective was to determine whether the effect of DG-031 was dose-dependent. The tertiary objective was to assess other biomarkers (See Results). Evaluation of safety and tolerability of the drug was also a primary endpoint.\n(§3) All data were analyzed according to a pre-established statistical analysis plan (SAP) and by intention-to-treat (ITT). Each arm of the study, as well as pooled sets (combining dose levels), was considered for the primary analysis. Each such set is an AB/BA cross-over design and in the primary analysis of efficacy, the levels of biomarkers of MI risk at the end of the treatment periods (visits 4 and 7) were used as primary response variables. The difference between DG-031 and placebo treatment was the primary outcome, assessed separately for each of the biomarkers. Treatment effect was tested using a two-sample t-test on the period differences for suitably transformed response variables, under an assumption of normality of the transformed data. We report treatment effect as one half of the observed mean differences in the two-sample t-test, with a 95% CI. No pre-tests for carry-over effect were performed as a part of the primary analysis. Tests for carry-over were done and are reported separately from results of primary analysis. All hypotheses were tested at a two-sided nominal significance level of 0.05 and p-values based on t-tests are reported. In addition, for the primary efficacy endpoints where the effects of the two highest doses on 10 primary variables were studied, a randomization test was performed which corrects for multiple testing and ensures that the key results are not affected by distributional concerns. In particular, 1 million permutations of the patients into the different study tracks were performed, generating a reference distribution for the maximum of the 10 t-statistics of the biomarkers under the null hypothesis of no drug effect. By comparing the observed t-statistic of each of the 10 biomarkers to this reference distribution, empirical p-values were computed. As was stated in the SAP prior to unblinding, it was considered likely that experimental manipulations would alter the effect of the drug on two of the primary markers; this was indeed the case and we are only reporting directly on 8 of the 10 primary markers but all 10 are included in the randomization test.\nBiomarker measurements: The ELISA and mass spectrometry assays used are described in the following references: Profita et al., J Pharmacol Exp Ther. 300:868-75, 2002; Roberts et al., Clin Chem. 47:418-25, 2001; Dada et al., Expert Rev Mol Diagn. […]"}, "[2]": {"test_system": "LTB4 produced by ionomycin-activated neutrophils ex vivo", "assay": "Study DG-031-201: LTB4 in whole blood ex vivo after ionomycin activation, mass spectrometry", "set-up": "species or system human", "protocol": "as §1, §2\nAll data were analyzed according to a pre-established statistical analysis plan (SAP) and by intention-to-treat (ITT). Each arm of the study, as well as pooled sets (combining dose levels), was considered for the primary analysis. Each such set is an AB/BA cross-over design and in the primary analysis of efficacy, the levels of biomarkers of MI risk at the end of the treatment periods (visits 4 and 7) were used as primary response variables. The difference between DG-031 and placebo treatment was the primary outcome, assessed separately for each of the biomarkers. Treatment effect was tested using a two-sample t-test on the period differences for suitably transformed response variables, under an assumption of normality of the transformed data. We report treatment effect as one half of the observed mean differences in the two-sample t-test, with a 95% CI. No pre-tests for carry-over effect were performed as a part of the primary analysis. Tests for carry-over were done and are reported separately from results of primary analysis. All hypotheses were tested at a two-sided nominal significance level of 0.05 and p-values based on t-tests are reported. […]"}, "[3]": {"test_system": "LTB4 production in human whole blood", "assay": "In vitro LTB4 production in human whole blood after ionomycin stimulation", "format": "cell-based", "protocol": "Neutrophils and other cells in human whole blood respond in vitro to activation by a calcium ionophore (e.g., ionomycin), with an increase in LTB4 production and with coupled release of MPO stimulated in part by LTB4 production in the assay. The effect of DG-031 on the capacity for production of LTB4 in vitro after ionomycin stimulation was evaluated at concentrations ranging from 0.1 μM up to 240 μM."}, "[4]": {"test_system": "MPO", "assay": "Study DG-031-201: MPO in plasma", "format": "in vivo, human", "details": "difference visit 2 to visit 5; 500 and 750 mg/day vs placebo cohort", "protocol": "as §1, with “patients. […]” for “patients.”\n(§4) All data were analyzed according to a pre-established statistical analysis plan (SAP) and by intention-to-treat (ITT). […] The difference between DG-031 and placebo treatment was the primary outcome, assessed separately for each of the biomarkers. […]"}, "[5]": {"test_system": "MPO release by ionomycin-activated neutrophils ex vivo", "assay": "Study DG-031-201: MPO in whole blood ex vivo after ionomycin activation", "set-up": "species or system human", "details": "p=0.02", "protocol": "as §1, with “patients. […]” for “patients.”\nas §4"}, "[6]": {"test_system": "CRP", "assay": "Study DG-031-201 cross-over trial: Hs-CRP in serum", "format": "in vivo, human", "details": "for CRP: Study 201, 2-6 wks", "protocol": "as §1, §2\nas §3, with “As was stated in the SAP prior to unblinding, it was considered likely that experimental manipulations would alter the effect of the drug on two of the primary markers; this was indeed the case and we are only reporting directly on 8 of the 10 primary markers but all 10 are included in the randomization test.” left out"}, "[7]": {"details": "difference visit 2 to visit 5, 500 and 750 mg/day vs placebo cohort"}},
  "note": "Several values for one entry are separate records, joined by “and”; a condition that tells them apart may be missing. Identical values can stand only once.",
  "data": [
    {"smiles": "O=C(O)[C@@H](c1ccc(OCc2ccc3ccccc3n2)cc1)C1CCCC1", "note": "[DG-031, (R)-(+)-alpha-cyclopentyl-4-(2-quinolinylmethoxy)-Benzeneacetic acid]", "values": [
      {"measurement": "Reduction of capacity for LTB4 production", "setting": "[1]; 250 mg BID dose group, p=0.1", "value": 18, "unit": "%"},
      {"measurement": "LTB4 production", "setting": "[1]; 250 mg BID, Study 201, NS", "value": "−18", "unit": "%"},
      {"measurement": "Reduction of capacity for LTB4 production", "setting": "[1]; 250 mg QD dose group, p=0.22", "value": 13, "unit": "%"},
      {"measurement": "LTB4 production", "setting": "[1]; 250 mg QD, Study 201, 64 subjects, NS", "value": "−13", "unit": "%"},
      {"measurement": "Reduction of capacity for LTB4 production", "setting": "[1]; 250 mg TID dose group, p=0.008", "value": 34, "unit": "%"},
      {"measurement": "LTB4 production", "setting": "[1]; 250 mg TID, St. 201, p = 0.008", "value": "−34% (St. 201)"},
      {"measurement": "Reduction of capacity for LTB4 production", "setting": "[1]; 250 mg TID, at steady state Cmin, [0%,56%], p=0.02", "value": 30, "unit": "%"},
      {"measurement": "Reduction of capacity for LTB4 production", "setting": "[1]; combined dose groups of 500 mg and 750 mg TDD, p=0.003", "value": "about 26%"},
      {"measurement": "Maximum reduction in LTB4 production", "setting": "[2]; 750 mg/day, [10%,39%], p=0.003", "value": 26, "unit": "%"},
      {"measurement": "Carry-over effect, LTB4 in whole blood, corr. for wbc, m.s.", "setting": "[2]; [7]", "value": 0.12},
      {"measurement": "Carry-over effect, LTB4 in whole blood, mass spec.", "setting": "[2]; [7]", "value": 0.19},
      {"measurement": "Reduction of LTB4 produced by ionomycin-activated neutrophils ex vivo", "setting": "[2]; pooled set of 500 mg and 750 mg arms, [6%,27%], nominal p=0.004", "value": 17, "unit": "%"},
      {"measurement": "Expected reduction of capacity for LTB4 production at peak concentration", "setting": "[3]; 250 mg TID peak, assuming ex vivo parallels in vitro response", "value": "about 65%"},
      {"measurement": "Expected reduction of capacity for LTB4 production at Cmin", "setting": "[3]; 250 mg TID, concentrations above 2-3 μg/ml, assuming ex vivo parallels in vitro response", "value": "≥ 30", "unit": "%"},
      {"measurement": "IC50", "setting": "[3]; human whole blood, ionomycin stimulation, read-out: in vitro IC50, capacity for LTB4 production", "value": "~3 µM and ~1.1 µg/mL"},
      {"measurement": "Carry-over effect, MPO in plasma", "setting": "[4]", "value": "−0.11"},
      {"measurement": "Maximum reduction in MPO production", "setting": "[5]; 750 mg/day, [2%,21%]", "value": 12, "unit": "%"},
      {"measurement": "Inhibition of MPO release", "setting": "[5]; combined dose groups of 500 mg and 750 mg TDD", "value": "about 12%"},
      {"measurement": "Reduction in CRP", "setting": "[6]; 250 mg BID and TID, end of wash-out period (week 6), p=0.02", "value": 25, "unit": "%"},
      {"measurement": "CRP", "setting": "[6]; 250 mg BID, p = 0.016", "value": "−24", "unit": "%"},
      {"measurement": "CRP", "setting": "[6]; 250 mg QD, NS", "value": "−6", "unit": "%"},
      {"measurement": "Persistence of CRP reduction after week 6", "setting": "[6]; after end of wash-out period", "value": 4, "unit": "weeks"},
      {"measurement": "Reduction of CRP", "setting": "[6]; higher two dose groups (250 mg BID and 250 mg TID), at 2 weeks, p=0.07, not significant", "value": 16, "unit": "%"}
    ]}
  ]
}
